Values joined by “and” are separate entries in the source; they are usually repeats but may differ in a detail not shown here. Equal values may be shown once.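 Where inhibition never reached the appropriate level, the endpoint shown equals the highest concentration tested. Otherwise, values were interpolated linearly from a five-concentration, 48-hour dose response in 96-well plates. GI50 marks 50% less growth. TGI: concentration producing complete growth inhibition.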

Some test systems named below: ACHN renal; HT29 colon; HCC-2998 colon; HOP-62 NSCLC; NCI-H522 lung; CCRF-CEM leukemia; HCT-116 colon; TK-10 renal; KM12 colon; SNB-75 CNS.
Common to all, as to assay: growth of human tumour cells (NCI), 48 h

Take `CC(C)[C@H](O)C(=O)N[C@H]1Cc2ccc3c(c2)[C@]24C5=C(N=C(O5)[C@H](C(C)C)NC1=O)c1nc(Cl)c(o1)-c1c(Cl)[nH]c5cccc(c15)-c1cccc2c1N[C@H]4O3`: the TGI was 5.3 µM with ACHN renal; 0.183 µM with HT29 colon; over 10 µM in the assay on HOP-62 NSCLC; 0.00562 µM in the assay on NCI-H522 lung; 0.0277 µM with CCRF-CEM leukemia. The GI50 in the assay on HT29 colon, with HCC-2998 colon and in the assay with HCT-116 colon was under 0.001 µM throughout.
Consider `O=C1C(Nc2cccc(O)c2)=C(Sc2ccc(Cl)cc2)C(=O)N1Cc1ccccc1`, for which the GI50 is 9.33 µM with ACHN renal; 16.7 µM with TK-10 renal; 2.94 µM with HCC-2998 colon; 15.8 µM in the assay with HOP-62 NSCLC; 21.3 µM in the assay on NCI-H522 lung; 4.08 µM in the assay on CCRF-CEM leukemia. The GI50 in the assay on KM12 colon is 10.6 µM; in the assay with HCT-116 colon, 5.45 µM. Besides, the TGI is 27 µM with ACHN renal; 31.8 µM in the assay on TK-10 renal; 7.23 µM in the assay on HCC-2998 colon; 35.7 µM in the assay on HOP-62 NSCLC; over 100 µM in the assay on NCI-H522 lung; 34.8 µM with CCRF-CEM leukemia. The TGI with KM12 colon is 27.8 µM; with HCT-116 colon, 33.2 µM.
As for `C=CC1=C(C)C(Cc2[nH]c(/C=c3\[nH]/c(=C/C4=NC(=O)C(C)/C4=C\C)c(C)c3CCC(=O)O)c(CCC(=O)OC)c2C)NC1=O` (stereo unspecified), the GI50 in the assay on ACHN renal was 26.3 µM; in the assay with TK-10 renal, 46.4 µM; in the assay on HCC-2998 colon, 26.7 µM; in the assay on HOP-62 NSCLC it was 26.4 µM; in the assay with NCI-H522 lung, 17.7 µM; in the assay with CCRF-CEM leukemia, 31.2 µM. Moreover, the GI50 in the assay on KM12 colon is 21 µM; in the assay with HCT-116 colon, 19.8 µM. The TGI with ACHN renal was 77.2 µM; in the assay on TK-10 renal, over 100 µM; with HCC-2998 colon, 67.1 µM; in the assay on HOP-62 NSCLC, 62.4 µM; in the assay with NCI-H522 lung, 32 µM; in the assay on CCRF-CEM leukemia it was over 100 µM. Further, the TGI in the assay with KM12 colon turned out to be 40.1 µM; with HCT-116 colon, 36.9 µM.
Regarding `CC(C)(C)[Si](Nc1ccccc1)(c1ccccc1)c1ccccc1`, the TGI in the assay on ACHN renal worked out at 30.1 µM; in the assay with HT29 colon, 28.7 µM; in the assay on TK-10 renal it was 28 µM; in the assay with HCC-2998 colon, 30.7 µM; in the assay on HOP-62 NSCLC, 31.4 µM; in the assay with CCRF-CEM leukemia it was 39.7 µM. In addition, the values for the TGI with SNB-75 CNS, with KM12 colon and in the assay on HCT-116 colon were 24.5 µM, 27.4 µM and 20.6 µM, respectively.
In the case of `O=C(Nc1ccccc1)OCc1nc2c([nH]1)C(=O)C=CC2=O`, the TGI in the assay with ACHN renal was 25.2 µM; with HT29 colon it was 58.5 µM; in the assay with TK-10 renal, 27 µM; in the assay with HCC-2998 colon, 30.1 µM; with HOP-62 NSCLC it was over 100 µM; in the assay on CCRF-CEM leukemia it was 13.1 µM. For the same compound, the TGI in the assay with SNB-75 CNS stood at 37.1 µM; in the assay on KM12 colon, 29 µM; in the assay on HCT-116 colon, 28.4 µM.
For the compound `CCCCCC/C=C/CCCCCCCc1cccc(O)c1C(=O)O`, the TGI in the assay on ACHN renal, with HT29 colon, with TK-10 renal, in the assay on HOP-62 NSCLC, in the assay with NCI-H522 lung and in the assay on CCRF-CEM leukemia was over 100 µM each time. In addition, the TGI in the assay on SNB-75 CNS, in the assay on KM12 colon and in the assay on HCT-116 colon was over 100 µM each time.
As to `CCCCCC/C=C\CCCCCCCCCc1c(O)c(OC)cc(O)c1CN(C)C`, the TGI in the assay with ACHN renal is 22.5 µM; with HT29 colon it was 16.1 µM; with TK-10 renal, 28.8 µM; with HOP-62 NSCLC it was 28.9 µM; in the assay with NCI-H522 lung, 3.25 µM; in the assay on CCRF-CEM leukemia, 2.87 µM. For the same compound, the TGI with SNB-75 CNS was 13.8 µM; in the assay with KM12 colon, 11.7 µM; in the assay on HCT-116 colon it was 22 µM.
With `COc1ccc(CC(C#N)c2cc(OC)c(OC)c(OC)c2)cc1` (stereo unspecified), the TGI in the assay on ACHN renal is over 91.6 µM; in the assay on HT29 colon, 5.72 µM; with TK-10 renal, over 100 µM; in the assay on HOP-62 NSCLC it was over 100 µM; in the assay on NCI-H522 lung, 0.135 µM; with CCRF-CEM leukemia, over 100 µM. Besides, the TGI with SNB-75 CNS was over 100 µM; with KM12 colon, 4.95 µM; in the assay on HCT-116 colon it was 3.88 µM.
Consider `C=C(CN(CCN1CCOCC1)CC(=C)c1ccc(C(=O)Nc2ccccc2N)cc1)c1ccc(C(=O)Nc2ccccc2N)cc1`, for which the GI50 was 6.04 µM in the assay on ACHN renal; 4.44 µM with TK-10 renal; 0.874 µM with HCC-2998 colon; 9.94 µM with HOP-62 NSCLC; 2.62 µM in the assay on NCI-H522 lung; 9.12 µM with KM12 colon. For the same compound, the GI50 in the assay with HCT-116 colon was 7.68 µM. The TGI is 13.3 µM in the assay with ACHN renal; 12 µM in the assay with TK-10 renal; 3.05 µM with HCC-2998 colon; over 50 µM with HOP-62 NSCLC; 28.9 µM in the assay on NCI-H522 lung; 19.5 µM in the assay on KM12 colon. Further, the TGI in the assay on HCT-116 colon turned out to be 15.3 µM.
Regarding `CO[C@@]12[C@H](COC(N)=O)C3=C(C(=O)C(C)=C(N)C3=O)N1C[C@@H]1N[C@@H]12`, the TGI in the assay with ACHN renal is 4.88 µM and 1.76 µM; in the assay with HT29 colon it was 12.3 µM and 13 µM and 23.7 µM; in the assay with HCC-2998 colon it was 2.88 µM and 2.98 µM and 3.91 µM; with NCI-H522 lung, 3.85 µM and 4.17 µM and 8.07 µM; with CCRF-CEM leukemia, 13.2 µM and 1.96 µM and 18.6 µM; with HCT-116 colon, 6.06 µM and 4.21 µM and 8.46 µM. Further, the GI50 in the assay on HT29 colon is 1.45 µM and 0.542 µM; with TK-10 renal, 2.63 µM; with HCC-2998 colon it was 1.14 µM; in the assay with HOP-62 NSCLC it was 0.643 µM; in the assay on NCI-H522 lung, 1.1 µM and 1.18 µM; in the assay with CCRF-CEM leukemia, 0.126 µM and 0.0625 µM. For the same compound, the GI50 with KM12 colon is 1.57 µM and 3.5 µM; in the assay with HCT-116 colon, 1.26 µM and 1.15 µM.
With `C=C(C)C1CCC2(CO)C(O)CC3(C)C(CCC4C5(C)CCC(O)C(C)(C)C5CCC43C)C12` (stereo unspecified), the TGI is 15.4 µM with ACHN renal; 54.7 µM with HT29 colon; 30.2 µM with TK-10 renal; 27 µM in the assay with HOP-62 NSCLC; 42.4 µM in the assay on NCI-H522 lung; over 100 µM in the assay with CCRF-CEM leukemia. The TGI in the assay with SNB-75 CNS was 9.5 µM; in the assay on KM12 colon, over 100 µM; with HCT-116 colon, 73.7 µM.
As to `CC(=O)OC1C/C(C)=C/[C@H](O)CC(C)/C=C/[C@@]2(C)CCC(C(C)(C)O)C12` (stereo partly specified), the TGI in the assay with ACHN renal, in the assay with HT29 colon, in the assay on TK-10 renal, in the assay on HCC-2998 colon, in the assay with HOP-62 NSCLC and in the assay on CCRF-CEM leukemia was over 100 µM each time. Also, the TGI with SNB-75 CNS, with KM12 colon and in the assay with HCT-116 colon was over 100 µM in each case.

The values are drawn from PubChem BioAssay (NCI).
